The text below walks through data of US20090012103A1, “SUBSTITUTED HETEROCYCLIC COMPOUNDS” (priority 2007, published 2009).

Molecules are shown by their SMILES.

The target in one data set is hERG potassium channel (Homo sapiens, UniProt Q12809). The data set is described as follows: hERG screening assay (PatchXpress patch clamp, CHO cell line).
For data set [1], the target named is T1, wild-type human cardiac sodium channel, hNav1.5 (Homo sapiens, UniProt Q14524). The data set is described as follows: Peak INa screening assay (tonic block TB and use-dependent block UDB of peak sodium current). It counts as cell-based. The following applies: compound at 10 μM.
T1 sequence (Q14524 whole entry): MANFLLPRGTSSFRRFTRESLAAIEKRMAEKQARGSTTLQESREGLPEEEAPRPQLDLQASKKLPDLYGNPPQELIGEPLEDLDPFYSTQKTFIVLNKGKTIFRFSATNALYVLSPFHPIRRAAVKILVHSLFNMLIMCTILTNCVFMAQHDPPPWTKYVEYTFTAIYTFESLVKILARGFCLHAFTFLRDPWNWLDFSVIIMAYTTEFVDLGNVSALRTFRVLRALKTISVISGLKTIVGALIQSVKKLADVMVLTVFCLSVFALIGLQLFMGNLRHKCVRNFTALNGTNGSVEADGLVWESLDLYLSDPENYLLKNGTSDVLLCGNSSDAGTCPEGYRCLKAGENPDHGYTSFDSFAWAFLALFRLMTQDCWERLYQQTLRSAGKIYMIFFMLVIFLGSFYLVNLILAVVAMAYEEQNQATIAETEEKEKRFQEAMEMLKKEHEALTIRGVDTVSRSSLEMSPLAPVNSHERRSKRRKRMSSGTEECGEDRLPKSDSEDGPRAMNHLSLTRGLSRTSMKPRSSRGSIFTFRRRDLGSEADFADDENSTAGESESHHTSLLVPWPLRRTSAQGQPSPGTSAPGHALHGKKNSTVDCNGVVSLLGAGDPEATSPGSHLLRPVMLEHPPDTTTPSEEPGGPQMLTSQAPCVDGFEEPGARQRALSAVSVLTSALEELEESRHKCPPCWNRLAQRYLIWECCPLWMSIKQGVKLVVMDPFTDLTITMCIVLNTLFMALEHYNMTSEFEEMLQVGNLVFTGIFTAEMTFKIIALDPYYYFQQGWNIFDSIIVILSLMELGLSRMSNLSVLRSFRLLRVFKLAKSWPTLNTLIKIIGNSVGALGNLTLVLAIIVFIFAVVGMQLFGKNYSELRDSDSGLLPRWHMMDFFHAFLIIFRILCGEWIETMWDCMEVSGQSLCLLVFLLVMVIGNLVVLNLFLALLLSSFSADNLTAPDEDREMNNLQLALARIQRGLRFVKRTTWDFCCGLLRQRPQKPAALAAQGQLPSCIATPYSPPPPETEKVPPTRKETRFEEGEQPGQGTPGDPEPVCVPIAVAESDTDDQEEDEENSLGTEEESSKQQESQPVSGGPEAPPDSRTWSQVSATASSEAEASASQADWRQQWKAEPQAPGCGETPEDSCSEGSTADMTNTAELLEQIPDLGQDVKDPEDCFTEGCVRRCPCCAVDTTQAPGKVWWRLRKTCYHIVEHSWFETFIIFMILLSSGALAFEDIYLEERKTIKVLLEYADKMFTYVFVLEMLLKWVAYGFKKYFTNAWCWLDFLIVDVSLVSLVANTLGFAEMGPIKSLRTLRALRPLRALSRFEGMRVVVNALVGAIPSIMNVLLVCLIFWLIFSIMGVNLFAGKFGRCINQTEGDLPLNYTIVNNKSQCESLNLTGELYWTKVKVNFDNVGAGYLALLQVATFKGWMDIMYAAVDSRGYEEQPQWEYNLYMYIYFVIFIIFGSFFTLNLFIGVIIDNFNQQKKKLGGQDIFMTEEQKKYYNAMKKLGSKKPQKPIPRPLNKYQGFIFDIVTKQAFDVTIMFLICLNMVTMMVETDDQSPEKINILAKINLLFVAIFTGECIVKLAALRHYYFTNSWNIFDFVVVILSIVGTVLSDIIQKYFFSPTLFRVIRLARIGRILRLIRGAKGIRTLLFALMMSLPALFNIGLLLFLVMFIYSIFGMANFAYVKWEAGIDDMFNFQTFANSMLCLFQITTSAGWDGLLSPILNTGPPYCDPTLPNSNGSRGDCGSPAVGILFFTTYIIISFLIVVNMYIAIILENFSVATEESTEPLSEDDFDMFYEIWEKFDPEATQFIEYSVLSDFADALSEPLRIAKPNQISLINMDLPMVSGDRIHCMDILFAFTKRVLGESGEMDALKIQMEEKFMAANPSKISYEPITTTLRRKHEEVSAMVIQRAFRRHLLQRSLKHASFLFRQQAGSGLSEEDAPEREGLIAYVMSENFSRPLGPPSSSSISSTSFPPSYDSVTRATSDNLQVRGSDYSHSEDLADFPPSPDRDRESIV
For data set [2], the target named is T1, wild-type human cardiac sodium channel, hNav1.5. The data set is described as follows: Late INa screening assay (late sodium current, PatchXpress whole cell patch clamp). The following applies: compound at 10 μM; read-out: Late INa % blk. It counts as cell-based. Background: The patch-clamp technique gives a direct electrical read-out from membranes.
Where [3] appears, read: tonic block, read-out: Tonic Peak INa % blk.
Setting [4] is: use-dependent block, read-out: UDB Peak INa % blk.

Chain of hERG potassium channel (Q12809 whole entry): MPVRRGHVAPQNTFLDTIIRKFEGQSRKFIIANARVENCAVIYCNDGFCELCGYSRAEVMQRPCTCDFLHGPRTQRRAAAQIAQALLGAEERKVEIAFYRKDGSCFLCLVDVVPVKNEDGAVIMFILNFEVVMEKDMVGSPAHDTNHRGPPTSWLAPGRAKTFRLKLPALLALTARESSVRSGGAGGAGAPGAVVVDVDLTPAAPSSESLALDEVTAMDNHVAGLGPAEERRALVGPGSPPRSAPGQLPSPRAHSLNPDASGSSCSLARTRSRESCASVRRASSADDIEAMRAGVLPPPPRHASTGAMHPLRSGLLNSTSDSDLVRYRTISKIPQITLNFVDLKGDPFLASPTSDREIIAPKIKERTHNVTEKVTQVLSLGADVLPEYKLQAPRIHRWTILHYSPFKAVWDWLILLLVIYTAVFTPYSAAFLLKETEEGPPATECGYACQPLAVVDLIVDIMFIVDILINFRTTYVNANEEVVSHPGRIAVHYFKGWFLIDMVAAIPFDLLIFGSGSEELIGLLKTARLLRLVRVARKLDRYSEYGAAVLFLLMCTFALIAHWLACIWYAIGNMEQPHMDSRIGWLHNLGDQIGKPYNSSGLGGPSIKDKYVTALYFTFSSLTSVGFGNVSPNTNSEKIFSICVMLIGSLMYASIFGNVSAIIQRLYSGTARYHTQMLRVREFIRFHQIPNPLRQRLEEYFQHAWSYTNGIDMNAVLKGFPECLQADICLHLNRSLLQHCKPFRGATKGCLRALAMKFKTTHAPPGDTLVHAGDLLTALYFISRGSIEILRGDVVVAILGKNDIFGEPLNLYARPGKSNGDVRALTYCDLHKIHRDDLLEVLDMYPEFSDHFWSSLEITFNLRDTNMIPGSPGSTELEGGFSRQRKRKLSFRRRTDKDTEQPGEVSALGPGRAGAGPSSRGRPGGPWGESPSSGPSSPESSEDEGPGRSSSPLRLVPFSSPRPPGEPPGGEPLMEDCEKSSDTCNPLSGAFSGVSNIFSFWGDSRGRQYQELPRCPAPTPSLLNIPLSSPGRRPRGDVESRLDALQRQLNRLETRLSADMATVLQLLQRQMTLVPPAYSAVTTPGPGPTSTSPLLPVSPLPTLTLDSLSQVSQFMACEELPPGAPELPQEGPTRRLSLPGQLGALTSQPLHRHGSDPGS
Method for hERG potassium channel: Compounds were screened to test their activity in blocking the hERG potassium channel. The hERG channel is heterologously expressed in a CHO (Chinese Hamster Ovary) cell line. Cells are maintained with standard tissue culture procedures and stable channel expression is maintained with 500 μg/ml G418 in the culture medium. Cells are harvested for testing on the PatchXpress automated patch clamp with Accumax (Innovative Cell Technologies, San Diego, Calif.) to isolate single cells.
The following solutions are used for electrophysiological recordings. The external solution contains: 2 mM CaCl2; 2 mM MgCl2; 4 mM KCl; 150 mM NaCl; 10 mM Glucose; 10 mM HEPES (pH 7.4 with 1M NaOH, osmolarity).
hERG channels are activated when the voltage is stepped to +20 mV from the −80 mV holding potential (see FIG. 3). During a 5 second step at +20 mV, the channels activate and then largely inactivate, so the currents are relatively small. Upon returning to −50 mV from +20 mV, hERG currents transiently become much larger as inactivation is rapidly removed and then the channel closes. The first step to −50 mV for 300 ms is used as a baseline for measuring the peak amplitude during the step to −50 mV after channel activation. The peak current at −50 mV is measured both under control conditions and after addition of compound.
All compounds are prepared as 10 mM DMSO stocks in glass vials. Stock solutions are mixed by vigorous vortexing and sonication for about 2 minutes at room temperature. For testing, compounds are diluted in glass vials using an intermediate dilution step in pure DMSO and then further diluted to working concentrations in external solution. Dilutions are prepared no longer than 20 minutes before use.
After achieving the whole-cell configuration, cells are monitored for 90 seconds to assess stability and washed with external solution for 66 seconds. The voltage protocol described above is then applied to the cells every 12 seconds and throughout the whole procedure. Only cells with stable recording parameters and meeting specified health criteria are allowed to enter the compound addition procedure.
External solution containing 0.1% DMSO (vehicle) is applied to the cells first to establish the control peak current amplitude. After allowing the current to stabilize for 3 to 5 minutes, 1 μM and then 10 μM test compounds are applied. Each compound concentration is added 4 times and cells are kept in test solution until the effect of the compound reaches steady state or for a maximum of 12 minutes. […] Washout in the external solution compartment is performed until the recovery of the current reaches steady state. Data are analyzed using DataXpress, Clampfit (Molecular Devices, Inc., Sunnyvale) and Origin 7 (Originlab Corp.)

As to `CC1=C(C(=O)OCc2ccccc2)[C@@H](c2ccccc2-c2ccc(C)o2)n2nnnc2N1` [PT-235, (R)-benzyl 5-methyl-7-(2-(5-methylfuran-2-yl)phenyl)-4,7-dihydrotetrazolo[1,5-a]pyrimidine-6-carboxylate], the “hERG Patch Clamp hERG % blk” value is reported as 10.0% on hERG potassium channel (1 μM) and 41.5% at hERG potassium channel (10 μM). The inhibition at 10 µM in data set [1] (setting [3]) is 28.1%; in data set [2], 71.4%.

Turning to `CC1=C(C(=O)OC(C)C)C(c2ccc3ccccc3c2)C2=C(CCCC2=O)N1` (stereo not drawn) [PT-157, isopropyl 2-methyl-4-(naphthalen-2-yl)-5-oxo-1,4,5,6,7,8-hexahydroquinoline-3-carboxylate], the “hERG Patch Clamp hERG % blk” value is listed as 16.0% on hERG potassium channel (1 μM) and 37.1% at hERG potassium channel (10 μM). Moreover, the inhibition at 10 µM is 15.3% in data set [1] (setting [3]) and 62.3% in data set [2].

With `CCOC(=O)C1=C(C)Nc2nc(C#N)c(C#N)n2C1c1cccc2ccccc12` (stereo not drawn) [PT-194, ethyl 2,3-dicyano-7-methyl-5-(naphthalen-1-yl)-5,8-dihydroimidazo[1,2-a]pyrimidine-6-carboxylate], the “hERG Patch Clamp hERG % blk” value at hERG potassium channel (1 μM) came to 25.0%; on hERG potassium channel (10 μM) it was 91.0%. The inhibition at 10 µM is 19.1% in data set [1] (setting [3]) and 76.1% in data set [2].

`CC1=C(C(=O)OCc2ccccc2)C(c2cccs2)n2nnnc2N1` (stereo not drawn) [PT-040, benzyl 5-methyl-7-(thiophen-2-yl)-4,7-dihydrotetrazolo[1,5-a]pyrimidine-6-carboxylate]: the “hERG Patch Clamp hERG % blk” value on hERG potassium channel (1 μM) came out at 14.5%; on hERG potassium channel (10 μM), 24.5%. For the same molecule, the results for the inhibition at 10 µM in data set [1] (setting [3]) and in data set [2] were 9.9% and 70.8%, respectively.

Regarding `CC1=C(C(=O)OC(C)C)C(c2cccc3ccccc23)C(C(=O)OC(C)C)=C(C)N1` [PT-123, diisopropyl 2,6-dimethyl-4-(naphthalen-1-yl)-1,4-dihydropyridine-3,5-dicarboxylate], the “hERG Patch Clamp hERG % blk” value at hERG potassium channel (1 μM) was determined as 10.0%; on hERG potassium channel (10 μM), 30.5%. In addition, the inhibition at 10 µM was found to be 7% in data set [1] (setting [3]) and 86.9% in data set [2].

Turning to `CC1=C(C(=O)OC(C)Cc2ccccc2)C(c2cccc3ccccc23)n2nnnc2N1` (stereo not drawn) [PT-064, 1-phenylpropan-2-yl 5-methyl-7-(naphthalen-1-yl)-4,7-dihydrotetrazolo[1,5-a]pyrimidine-6-carboxylate], the results for the “hERG Patch Clamp hERG % blk” value on hERG potassium channel (1 μM) and at hERG potassium channel (10 μM) were 20.5% and 37.5%, respectively. Further, the inhibition at 10 µM in data set [1] (setting [3]) amounted to 7.2%; in data set [2], 79.5%.

With `CCOC(=O)C1=C(C)Nc2nnnn2C1c1cccc(Oc2ccccc2)c1` (stereo not drawn) [PT-464, ethyl 5-methyl-7-(3-phenoxyphenyl)-4,7-dihydrotetrazolo[1,5-a]pyrimidine-6-carboxylate], the “hERG Patch Clamp hERG % blk” value at hERG potassium channel (1 μM) came out at 11.0%; at hERG potassium channel (10 μM), 55.0%. For the same molecule, the inhibition at 10 µM stood at 2.7% in data set [1] (setting [3]) and 55.8% in data set [2].

For `COc1cc(Cl)ccc1COC(=O)C1=C(C)Nc2nnnn2C1c1c(C)cccc1C` (stereo not drawn) [PT-307, 4-chloro-2-methoxybenzyl 7-(2,6-dimethylphenyl)-5-methyl-4,7-dihydrotetrazolo[1,5-a]pyrimidine-6-carboxylate], the “hERG Patch Clamp hERG % blk” value at hERG potassium channel (1 μM) is reported as 10.0%; at hERG potassium channel (10 μM), 62.5%. Further, the values for the inhibition at 10 µM in data set [1] (setting [3]), in data set [1] (setting [4]) and in data set [2] were 14%, 16.6% and 84.9%, respectively.

For `CCOC(=O)C1=C(C)NC(C)=C(C(=O)OCC)C1c1csc2ccccc12` [PT-115, diethyl 4-(benzo[b]thiophen-3-yl)-2,6-dimethyl-1,4-dihydropyridine-3,5-dicarboxylate], the “hERG Patch Clamp hERG % blk” value on hERG potassium channel (10 μM) was found to be 50.3%. Besides, the inhibition at 10 µM came out at 17.2% in data set [1] (setting [3]) and 86% in data set [2].

For the molecule `CC1=C(C(=O)OC(C)C)C(c2ccc(Br)s2)C(C(=O)OC(C)C)=C(C)N1` [PT-124, diisopropyl 4-(5-bromothiophen-2-yl)-2,6-dimethyl-1,4-dihydropyridine-3,5-dicarboxylate], the “hERG Patch Clamp hERG % blk” value on hERG potassium channel (1 μM) was found to be 11.5%; on hERG potassium channel (10 μM), 66.0%. In addition, the inhibition at 10 µM in data set [1] (setting [3]) was found to be 58.7%; in data set [2] it was 86.2%.

Turning to `CC1=C(C(=O)OCc2ccccc2)C(c2ccccc2N2CCN(S(C)(=O)=O)CC2)n2nnnc2N1` (stereo not drawn) [PT-339, benzyl 5-methyl-7-(2-(4-(methylsulfonyl)piperazin-1-yl)phenyl)-4,7-dihydrotetrazolo[1,5-a]pyrimidine-6-carboxylate], the “hERG Patch Clamp hERG % blk” value at hERG potassium channel (1 μM) was 11.5%; at hERG potassium channel (10 μM), 43.5%. Besides, the inhibition at 10 µM in data set [1] (setting [3]) came to 22.2%; in data set [1] (setting [4]), 9%; in data set [2], 51.4%.

Regarding `N#CC1=C(N)OC2=C(C(=O)CCC2)C1c1ccc(Br)cc1` (stereo not drawn) [PT-096, 2-amino-4-(4-bromophenyl)-5-oxo-5,6,7,8-tetrahydro-4H-chromene-3-carbonitrile], the “hERG Patch Clamp hERG % blk” value is 15.0% at hERG potassium channel (1 μM) and 48.0% on hERG potassium channel (10 μM). The inhibition at 10 µM in data set [1] (setting [3]) was -0.4%; in data set [2] it was 5.5%.

On to `CC1=C(C(=O)OC(c2ccccc2)C2CC2)C(c2cccc3ccccc23)n2nnnc2N1` (stereo not drawn) [PT-002, cyclopropyl(phenyl)methyl 5-methyl-7-(naphthalen-1-yl)-4,7-dihydrotetrazolo[1,5-a]pyrimidine-6-carboxylate], for which the figures for the “hERG Patch Clamp hERG % blk” value on hERG potassium channel (1 μM) and on hERG potassium channel (10 μM) were 11.5% and 28.0%, respectively. The inhibition at 10 µM was 2.4% in data set [1] (setting [3]) and 53.1% in data set [2].

On to `CC1=C(C(=O)OCc2ccccc2)C(c2cccc3ccccc23)n2nnnc2N1` (stereo not drawn) [PT-027, benzyl 5-methyl-7-(naphthalen-1-yl)-4,7-dihydrotetrazolo[1,5-a]pyrimidine-6-carboxylate], for which the “hERG Patch Clamp hERG % blk” value stood at 14.0% at hERG potassium channel (1 μM) and 64.5% on hERG potassium channel (10 μM). For the same molecule, the inhibition at 10 µM stood at 29.7% in data set [1] (setting [3]), 6.8% in data set [1] (setting [4]) and 74.9% in data set [2].

Turning to `CCOC(=O)C1=C(C)NC2=C(C(=O)CCC2)C1c1ccco1` (stereo not drawn) [PT-153, ethyl 4-(furan-2-yl)-2-methyl-5-oxo-1,4,5,6,7,8-hexahydroquinoline-3-carboxylate], the “hERG Patch Clamp hERG % blk” value on hERG potassium channel (1 μM) worked out at 10.5%; at hERG potassium channel (10 μM) it was 13.5%. In addition, the inhibition at 10 µM is 1.7% in data set [1] (setting [3]) and -5% in data set [2].

Regarding `CC1=C(C(=O)OC2CCc3ccccc32)C(c2cccc3ccccc23)n2nnnc2N1` (stereo not drawn) [PT-062, 2,3-dihydro-1H-inden-1-yl 5-methyl-7-(naphthalen-1-yl)-4,7-dihydrotetrazolo[1,5-a]pyrimidine-6-carboxylate], the “hERG Patch Clamp hERG % blk” value is listed as 14.0% at hERG potassium channel (1 μM) and 51.0% at hERG potassium channel (10 μM). For the same molecule, the inhibition at 10 µM in data set [1] (setting [3]) turned out to be 7.9%; in data set [2], 60.2%.
